Like-named read-outs stand apart in the source and are kept apart here.
How the values were obtained:
[1] = biological target: PI3K-alpha (Homo sapiens, UniProt P42336); test: PI3K-alpha fluorescence polarization assay; type: biochemical; settings: 20 μM PIP2, 25 μM ATP; read-out: PI3Kα IC50
Summary of the method: (§1)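 PIP2 (diC8) and ATP substrate with PI3K in 20 mM HEPES pH 7.5, 2 mM MgCl2, 0.05% CHAPS, 0.01% βME; 1% DMSO final; 30–60 min reaction. Stopped with EDTA plus GST-GRP (70 nM) and TAMRA probe (10 nM); FP (mP) read after 30–90 min, with no-enzyme controls.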

[2] = biological target: PI3K-gamma (Homo sapiens, UniProt P48736); test: PI3K-gamma fluorescence polarization assay; type: biochemical; settings: 20 μM PIP2, 25 μM ATP; read-out: PI3Kγ IC50
Summary of the method: as §1

[3] = biological target: T1, mTOR (Homo sapiens, UniProt P42345); test: mTOR enzyme assay (DELFIA, purified FLAG-TOR, His6-S6K substrate); type: biochemical; parameters: FLAG; settings: 100 μM ATP, 2 hours
[4] = system: LNCap; test: In vitro cell growth assay (MTS), LNCap; type: cell-based; settings: LNCaP, 72 h, human prostate line, three days after drug treatment
[5] = system: MDA468; test: In vitro cell growth assay (MTS), MDA468; type: cell-based; settings: 72 h, human breast line MDA468, three days after drug treatment, read-out: MDA IC50
[6] = system: human tumor xenograft models; settings: cited from earlier work
[7] = system: acute lymphoblastic leukemia; settings: in vivo; cited from earlier work
[8] = biological target: hSMG-1 (Homo sapiens, UniProt Q96Q15); settings: read-out: hSMG-1 kinase activity IC50; cited from earlier work
[9] = biological target: T1, mTOR; settings: read-out: mTOR IC50; mTOR complexes (PI103), mTOR enzyme (ZSTK474); cited from earlier work

Sequence of PI3K-alpha (P42336 whole entry, species assumed): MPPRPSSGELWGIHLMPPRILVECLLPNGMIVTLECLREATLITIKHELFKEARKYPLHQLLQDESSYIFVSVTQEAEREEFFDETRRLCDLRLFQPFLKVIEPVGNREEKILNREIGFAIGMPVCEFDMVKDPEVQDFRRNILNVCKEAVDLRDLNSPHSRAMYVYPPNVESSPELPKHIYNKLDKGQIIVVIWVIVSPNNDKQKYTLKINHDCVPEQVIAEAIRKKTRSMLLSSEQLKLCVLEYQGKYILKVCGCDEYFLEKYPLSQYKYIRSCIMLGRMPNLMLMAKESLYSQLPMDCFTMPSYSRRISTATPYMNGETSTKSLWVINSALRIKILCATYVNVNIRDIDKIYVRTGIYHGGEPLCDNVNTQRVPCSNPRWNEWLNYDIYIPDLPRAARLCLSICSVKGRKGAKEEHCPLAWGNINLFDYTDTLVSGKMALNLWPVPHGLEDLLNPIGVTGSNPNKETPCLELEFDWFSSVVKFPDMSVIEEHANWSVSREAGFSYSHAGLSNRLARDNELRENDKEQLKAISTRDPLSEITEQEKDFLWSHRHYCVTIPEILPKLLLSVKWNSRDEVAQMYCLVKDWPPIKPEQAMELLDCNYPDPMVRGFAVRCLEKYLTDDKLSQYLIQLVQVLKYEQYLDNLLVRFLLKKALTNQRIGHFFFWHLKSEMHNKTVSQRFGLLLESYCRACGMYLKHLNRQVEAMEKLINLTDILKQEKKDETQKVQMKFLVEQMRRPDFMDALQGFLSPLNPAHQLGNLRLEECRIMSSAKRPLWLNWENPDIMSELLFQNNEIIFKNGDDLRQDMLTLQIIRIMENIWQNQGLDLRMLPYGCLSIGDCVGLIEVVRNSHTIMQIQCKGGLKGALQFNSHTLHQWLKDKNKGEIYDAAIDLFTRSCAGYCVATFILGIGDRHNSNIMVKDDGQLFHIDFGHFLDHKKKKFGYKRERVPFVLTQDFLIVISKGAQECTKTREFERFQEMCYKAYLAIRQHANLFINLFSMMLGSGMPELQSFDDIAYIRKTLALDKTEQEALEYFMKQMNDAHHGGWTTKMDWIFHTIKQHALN
Sequence of PI3K-alpha (P27986 whole entry partner, species assumed): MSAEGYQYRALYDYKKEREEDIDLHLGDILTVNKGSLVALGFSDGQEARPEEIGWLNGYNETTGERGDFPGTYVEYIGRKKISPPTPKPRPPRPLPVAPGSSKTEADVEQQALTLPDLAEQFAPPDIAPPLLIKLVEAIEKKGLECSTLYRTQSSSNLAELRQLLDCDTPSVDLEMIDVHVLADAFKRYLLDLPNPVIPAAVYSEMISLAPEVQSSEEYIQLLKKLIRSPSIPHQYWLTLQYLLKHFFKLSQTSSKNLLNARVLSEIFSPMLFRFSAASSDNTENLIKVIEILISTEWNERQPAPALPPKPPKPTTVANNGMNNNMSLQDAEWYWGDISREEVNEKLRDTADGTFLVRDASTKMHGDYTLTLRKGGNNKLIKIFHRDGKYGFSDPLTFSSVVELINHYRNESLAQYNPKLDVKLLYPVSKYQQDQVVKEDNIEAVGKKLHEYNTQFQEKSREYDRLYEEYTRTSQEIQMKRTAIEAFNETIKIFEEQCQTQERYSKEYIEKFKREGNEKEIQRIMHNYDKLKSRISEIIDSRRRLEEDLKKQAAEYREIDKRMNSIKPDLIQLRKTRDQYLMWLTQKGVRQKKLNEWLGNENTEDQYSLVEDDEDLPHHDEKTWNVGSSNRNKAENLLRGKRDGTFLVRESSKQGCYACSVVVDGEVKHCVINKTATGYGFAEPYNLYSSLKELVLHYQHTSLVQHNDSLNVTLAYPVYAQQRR
Sequence of PI3K-gamma (P48736 whole entry, species assumed): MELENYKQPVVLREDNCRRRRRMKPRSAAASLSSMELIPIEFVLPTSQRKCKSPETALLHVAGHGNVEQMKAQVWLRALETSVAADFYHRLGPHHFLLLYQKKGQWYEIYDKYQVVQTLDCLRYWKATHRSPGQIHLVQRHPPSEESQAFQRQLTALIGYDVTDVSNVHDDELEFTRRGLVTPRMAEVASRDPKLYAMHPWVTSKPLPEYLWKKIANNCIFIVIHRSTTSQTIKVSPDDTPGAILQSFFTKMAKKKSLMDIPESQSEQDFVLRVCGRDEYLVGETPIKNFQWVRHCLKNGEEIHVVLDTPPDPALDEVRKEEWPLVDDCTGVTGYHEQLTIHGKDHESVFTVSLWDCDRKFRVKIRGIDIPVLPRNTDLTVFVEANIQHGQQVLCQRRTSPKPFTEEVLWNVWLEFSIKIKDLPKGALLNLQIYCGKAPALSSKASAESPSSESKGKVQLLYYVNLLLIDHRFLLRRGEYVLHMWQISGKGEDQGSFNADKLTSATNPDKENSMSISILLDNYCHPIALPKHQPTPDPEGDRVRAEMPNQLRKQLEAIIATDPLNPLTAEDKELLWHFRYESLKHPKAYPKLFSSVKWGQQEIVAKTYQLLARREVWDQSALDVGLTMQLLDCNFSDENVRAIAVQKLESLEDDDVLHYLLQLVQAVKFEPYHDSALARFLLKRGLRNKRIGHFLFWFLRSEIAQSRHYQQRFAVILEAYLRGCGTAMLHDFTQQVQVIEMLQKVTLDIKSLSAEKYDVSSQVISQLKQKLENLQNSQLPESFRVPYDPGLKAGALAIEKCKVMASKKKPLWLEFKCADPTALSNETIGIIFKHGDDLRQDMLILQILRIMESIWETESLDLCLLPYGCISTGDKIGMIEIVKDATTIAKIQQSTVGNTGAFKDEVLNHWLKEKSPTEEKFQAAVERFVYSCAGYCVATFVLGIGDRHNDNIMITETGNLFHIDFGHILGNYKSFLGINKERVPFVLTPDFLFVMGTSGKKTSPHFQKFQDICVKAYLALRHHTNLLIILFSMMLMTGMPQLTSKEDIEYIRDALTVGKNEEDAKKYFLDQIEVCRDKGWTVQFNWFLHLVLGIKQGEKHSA

SMILES: CN1CCN(Cc2ccc(NC(=O)Nc3ccc(-c4nc(NC5CCOCC5)cc(N5C6CCC5COC6)n4)cc3)cc2)CC1 [1-{4-[(4-methylpiperazin-1-yl)methyl]phenyl}-3-{4-[4-(3-oxa-8-azabicyclo[3.2.1]oct-8-yl)-6-(tetrahydro-2H-pyran-4-ylamino)pyrimidin-2-yl]phenyl}urea]
- IC50 [1]: 931 nM
- IC50 [2]: 2180 nM
- IC50 [3]: 6.3 nM
- IC50 [4]: 40 nM
- IC50 [5]: 65 nM

SMILES: CN1CCN(Cc2ccc(NC(=O)Nc3ccc(-c4nc(NCCS(C)(=O)=O)cc(N5C6CCC5COC6)n4)cc3)cc2)CC1 [1-{4-[(4-methylpiperazin-1-yl)methyl]phenyl}-3-{4-[4-{[2-(methylsulfonyl)ethyl]amino}-6-(3-oxa-8-azabicyclo[3.2.1]oct-8-yl)pyrimidin-2-yl]phenyl}urea]
- IC50 [1]: 3980 nM
- IC50 [2]: 10800 nM
- IC50 [3]: 17.5 nM
- IC50 [4]: 400 nM
- IC50 [5]: 500 nM

SMILES: CC(C)Nc1cc(N2C3CCC2COC3)nc(-c2ccc(NC(=O)Nc3ccc(CN(C)C)cc3)cc2)n1 [1-{4-[(dimethylamino)methyl]phenyl}-3-(4-{4-[(1-methylethyl)amino]-6-(3-oxa-8-azabicyclo[3.2.1]oct-8-yl)pyrimidin-2-yl}phenyl)urea]
- IC50 [1]: 1190 nM
- IC50 [2]: 3880 nM
- IC50 [3]: 2.65 nM
- IC50 [4]: 120 nM
- IC50 [5]: 120 nM

SMILES: CN(C)Cc1ccc(NC(=O)Nc2ccc(-c3nc(N4C5CCC4COC5)cc(N4C[C@@H]5C[C@H]4CO5)n3)cc2)cc1 [1-{4-[(dimethylamino)methyl]phenyl}-3-(4-{4-[(1S,4S)-2-oxa-5-azabicyclo[2.2.1]hept-5-yl]-6-(3-oxa-8-azabicyclo[3.2.1]oct-8-yl)pyrimidin-2-yl}phenyl)urea]
- IC50 [1]: 1240 nM
- IC50 [2]: ≥ 10000 nM
- IC50 [3]: 16 nM
- IC50 [4]: 60 nM
- IC50 [5]: 150 nM

SMILES: C[C@@H]1COCCN1c1cc(N2C3CCC2COC3)nc(-c2ccc(NC(=O)Nc3ccc(C(=O)N(C)C)cc3)cc2)n1 [N,N-dimethyl-4-{[(4-{4-[(3R)-3-methylmorpholin-4-yl]-6-(3-oxa-8-azabicyclo[3.2.1]oct-8-yl)pyrimidin-2-yl}phenyl)carbamoyl]amino}benzamide]
- IC50 [1]: 108 nM
- IC50 [2]: 1640 nM
- IC50 [3]: 0.44 nM
- IC50 [4]: ≤ 0.8 nM
- IC50 [5]: 0.8 nM

SMILES: Cn1c(=O)n(-c2ccc(C(C)(C)C#N)cc2)c2c3cc(-c4cnc5ccccc5c4)ccc3ncc21 [NVP-BEZ-235, 2-methyl-2-(4-(3-methyl-2-oxo-8-(quinolin-3-yl)-2,3-dihydro-1H-imidazo[4,5-c]quinolin-1-yl)phenyl)propanenitrile]
- activity against human tumor models ([6]; PC-3 and U-87 xenografts): demonstrated activity

SMILES: Oc1cccc(-c2nc(N3CCOCC3)c3oc4ncccc4c3n2)c1 [PI103, 3-(4-(4-morpholinyl)pyrido[3′,′:4,5]furo[3,2-d]pyrimidin-2-yl)phenol]
- activity against human tumor models ([6]; I.P. dosing in mice, U87MG, PC3, MDA-MB-468, MDA-MB-435, HCT 116, SKOV3, IGROV-1): demonstrated activity

SMILES: CO[C@H]1C[C@@H]2CC[C@@H](C)[C@@](O)(O2)C(=O)C(=O)N2CCCC[C@H]2C(=O)O[C@H]([C@H](C)C[C@@H]2CC[C@@H](OC(=O)C(C)(CO)CO)[C@H](OC)C2)CC(=O)[C@H](C)/C=C(\C)[C@@H](O)[C@@H](OC)C(=O)[C@H](C)C[C@H](C)/C=C/C=C/C=C/1C [Torisel]
- activity in NOS/SCID xenograft mouse model of acute lymphoblastic leukemia [7]: active

SMILES: COC[C@H]1OC(=O)c2coc3c2[C@@]1(C)C1=C(C3=O)[C@@H]2CCC(=O)[C@@]2(C)C[C@H]1OC(C)=O [Wortmannin]
- IC50 [8]: ~60 nM

SMILES: FC(F)c1nc2ccccc2n1-c1nc(N2CCOCC2)nc(N2CCOCC2)n1 [ZSTK474, 2-(2-difluoromethylbenzoimidazol-1-yl)-4,6-dimorpholino-1,3,5-triazine]
- IC50 [9]: > 10000 nM
- tumor growth in mouse human xenograft cancer models ([6]; chronic oral administration, 400 mg/kg, A549, PC-3, WiDr): completely inhibited growth

From patent US8835429B2, “Pyrimidine compounds, their use as mTOR kinase and Pl3 kinase inhibitors, and their syntheses” (Wyeth LLC, priority 2009, dated 2014)
